Publication PMC5073322, “Novel Natural Product-like Caged Xanthones Bearing a Carbamate Moiety Exhibit Antitumor Potency and Anti-Angiogenesis Activity In vivo” (Scientific Reports, 2016)

Experiments:
HUVECs = assay: Tube formation assay; assay type: cell-based, human; conditions: Matrigel
Procedure: GA was reported to inhibit tumour angiogenesis and may be a viable drug candidate for anti-angiogenesis and anticancer therapies. Therefore, the anti-angiogenesis activity of the caged xanthone derivative 8n was evaluated. Human umbilical vein endothelial cells (HUVECs) were used in all experiments. Cell migration is critical for endothelial cells to form blood vessels during angiogenesis, tumour growth and metastasis. […] Endothelial cell invasion is a critical part of angiogenesis; therefore, a transwell assay was performed to evaluate the ability of inactivated HUVECs to pass through the transwell membrane barrier in the presence of 8n.
Figure 8 8n had anti-angiogenesis activity in vitro and in vivo. (A) A wound-healing assay was used to evaluate the motility of HUVECs after treatment with 8n for 24 h. (B) Changes in cell motility were evaluated using a transwell assay of cell migration and invasion. (C) The effect of 8n on tube formation by HUVECs. […] (D) Zebrafish embryos treated with blank control or 1, 10, or 50 μg/ml of 8n.
The tube formation assay was performed as previously reported with some modifications. A 48-well cell culture plate and the tips used were pre-chilled at −20 °C for 10 mins and then carefully coated with Matrigel (200 μL/well; Becton Dickinson, Bedford, MA, USA). Caution was taken to avoid bubbles. […]

[1] = system: Hsp90 client proteins in HepG2 cells; assay: Western blot of Hsp90 client proteins; assay type: cell-based, human; conditions: HepG2, 24 h
Procedure: (§1) Figure 9 (A) The caged compounds (50 μM) inhibited the Hsp90 ATPase activity in a HTRF-based inhibition assay. (B) The IC50 values for the inhibition of Hsp90 ATPase by 8n, 8o and GA as detected by the HTRF Transcreener ADP kit. The test compounds were diluted to obtain a range of concentrations and incubated with Hsp90 and ATP. The amount of ADP generated was detected. (C) Western blots of the Hsp90 client proteins after HepG2 cells were treated with the indicated concentrations of 8n for 24 h. (D) The mRNA expression of VEGF was determined by real-time quantitative reverse-transcriptase polymerase chain reaction (RT-PCR) and analysed by the delta Ct method. The bars represent the means with standard error of the mean (SEM) and the fold change in the VEGF/GAPDH ratio relative to the vehicle-treated group. The different significance levels are indicated as **P < 0.05.
(§2) The influence of 8n on the degradation of Hsp90 client proteins was monitored by WB analysis. HepG2 cells were treated with different concentrations of 8n for 24 h. […] HIF-1α, as a key modulator of angiogenesis and an important client protein of Hsp90, was also examined, and the expression of HIF-1α decreased after treatment with 8n.
The cells were washed with PBS and lysed with ice-cold lysis buffer supplemented with protease inhibitors (Roche) for 30 min. The protein content of the supernatants of lysates was determined using a bicinchoninic acid assay. Equal 50 μg total protein samples were separated by sodium dodecyl sulphate polyacrylamide gel electrophoresis (SDS−PAGE) and then transferred onto PVDF membranes (Millipore) at 90 volts for 90 mins. After blocking the membrane with 5% skim milk for 1 h at RT, the membranes were incubated with the primary antibody overnight at 4 °C. Then, the membranes were incubated with a DyLight 800-labeled secondary antibody in the dark for 1 h. Detection of specific proteins was performed with the Odyssey infrared imaging system (LI-COR, Lincoln, Nebraska, USA).

MDA-MB-231 = assay: MTT antiproliferative assay, MDA-MB-231; conditions: read-out: IC50 MDA-MB-231; MTT, 72 h
HepG2 cells = assay: Annexin V/PI apoptosis, flow cytometry; assay type: cell-based, human; conditions: 48 h
Procedure: First, the influence of 8n on the cytoskeleton was evaluated using morphological observations. After treatment with 8n, the morphological features of tumour cells changed greatly, and the changed characteristics included the rounding-up of cells, rough membrane surfaces, and more spherical or ovoid cytoplasmic fragments (Fig. 6A). However, the control group, which lacked compound 8n, had good growth. Next, we examined whether the morphological changes were the result of apoptosis induced by compound 8n using DAPI staining and FACScan.
Figure 6 (A) Morphological changes in cancer cells and nuclei. (B) 8n induced apoptosis in HepG2 cells. […] The cells were then were stained with DAPI and observed by fluorescence microscopy. […] (D) The percentages of early apoptotic and total apoptotic cells were quantified using flow cytometry. *p < 0.05; **p < 0.01. […] The expression levels of Caspase-3, Cleaved Caspase-3, Bax, Bcl-2, PARP and cleaved PARP were measured by Western blotting. […]
HepG2 cells were grown on glass coverslips and fixed in 4% paraformaldehyde. […] 8n-induced apoptosis was assessed using a fluorescence microscope and the Annexin V-FITC apoptosis Detection Kit (Beyotime Biotechnology, Shanghai, China) according to the manufacturer’s instructions. […] Stained cells were analysed with a FACScan analyser (argon laser, Becton Dickinson, USA). All data were analysed by using the FlowJo software.

A549 = assay: MTT antiproliferative assay, A549; conditions: read-out: IC50 A549; MTT, 72 h
Procedure: The inhibition of tumour cell growth was measured by a modified tetrazolium (MTT) salt assay, as previously described[39]. Cells were cultured in a 96-well plate and treated with culture medium alone or different concentrations of the compounds. The cells were incubated for 72 h, and then, the MTT assay reagent was added. After a 4 h incubation, the formazan product was quantitated at 570 nm. The IC50 values (the concentrations that gave rise to 50% inhibition of cell viability) were calculated using GraphPad Prism 6 using a variable slope (four parameters).

VEGF = VEGF mRNA by real-time RT-PCR; assay type: cell-based; conditions: hypoxia, VEGF/GAPDH
Procedure: as §1, §2

With `CC(C)=CCC12OC(C)(C)C3CC(C=C4C(=O)c5c(OC(=O)N6CCC(N7CCCCC7)CC6)cccc5OC431)C2=O` (stereo not drawn) [Compound 8n] the “tube-forming ability of HUVECs” value (HUVECs) was “significantly impaired”, the “expression levels of client proteins HER-2, Akt and Erk1/2” value [1] was “dramatically reduced” and the “expression of HIF-1α” value [1] was “decreased”. The “expression of Hsp70” value [1] was “changed little”, the IC50 (MDA-MB-231) was 1200 ± 70 nM and the apoptotic cells (HepG2 cells; 0.3 μM) was “more than 11.89%”. The apoptotic cells (HepG2 cells; 1 μM) was over 46.3%, the IC50 (A549) was 7.23 ± 0.56 µM and the “hypoxic induction of VEGF expression (mRNA)” value (VEGF) was “substantially repressed”.
